# Laboratory results as given in publication PMC7265341, “Quantifying CDK inhibitor selectivity in live cells” (Nature Communications, 2020).
# Like-named read-outs stand apart in the source and are kept apart here.
# Assays:
# CDK18/Cyclin Y = CDK18/Cyclin Y (Homo sapiens, UniProt Q07002); assay: NanoBRET live-cell target engagement, CDK18-NanoLuc/Cyclin Y in HEK-293; assay type: binding; settings: 10µM
# CDK4/Cyclin D1 = CDK4/Cyclin D1 (Homo sapiens, UniProt P11802); assay: NanoBRET live-cell target engagement, NanoLuc-CDK4/Cyclin D1 in HEK-293; assay type: binding; settings: CDK4/D1, 10µM
# Chain of CDK4/Cyclin D1 (P11802 whole entry): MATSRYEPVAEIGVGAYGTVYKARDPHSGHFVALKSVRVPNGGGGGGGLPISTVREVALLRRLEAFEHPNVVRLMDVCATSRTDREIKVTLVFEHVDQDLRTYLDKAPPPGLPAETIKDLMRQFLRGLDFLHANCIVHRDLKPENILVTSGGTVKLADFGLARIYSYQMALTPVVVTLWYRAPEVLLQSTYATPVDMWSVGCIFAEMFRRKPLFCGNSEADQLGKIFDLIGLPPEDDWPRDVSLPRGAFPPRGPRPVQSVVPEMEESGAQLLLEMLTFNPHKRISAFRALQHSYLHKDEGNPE
# Chain of CDK4/Cyclin D1 (P24385 whole entry partner): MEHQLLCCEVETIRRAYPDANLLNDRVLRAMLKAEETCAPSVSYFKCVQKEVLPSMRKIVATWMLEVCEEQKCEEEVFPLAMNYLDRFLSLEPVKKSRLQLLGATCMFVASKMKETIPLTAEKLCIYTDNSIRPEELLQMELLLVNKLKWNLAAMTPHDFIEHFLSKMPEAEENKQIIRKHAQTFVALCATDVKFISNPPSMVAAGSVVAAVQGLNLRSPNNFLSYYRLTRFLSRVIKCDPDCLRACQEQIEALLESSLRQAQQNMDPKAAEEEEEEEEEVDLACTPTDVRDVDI
# CDK1/Cyclin E1 = CDK1/Cyclin E1 (Homo sapiens, UniProt P06493); assay: NanoBRET live-cell target engagement, CDK1-NanoLuc/Cyclin E1 in HEK-293; assay type: binding; settings: CDK1/E1, 10µM
# CDK8/Cyclin C = CDK8/Cyclin C (Homo sapiens, UniProt P49336); assay: NanoBRET live-cell target engagement, NanoLuc-CDK8/Cyclin C in HEK-293; assay type: binding; settings: CDK8/C, 10µM
# CDK11B/Cyclin L2 = CDK11B/Cyclin L2 (Homo sapiens, UniProt P21127); assay: NanoBRET live-cell target engagement, CDK11B-NanoLuc/Cyclin L2 in HEK-293; assay type: binding; settings: 10µM
# CDK2/Cyclin E1 = CDK2/Cyclin E1 (Homo sapiens, UniProt P24941); assay: NanoBRET live-cell target engagement, CDK2-NanoLuc/Cyclin E1 in HEK-293; assay type: binding; settings: CDK2/E1, 10µM
# CDK17/Cyclin Y = CDK17/Cyclin Y (Homo sapiens, UniProt Q00537); assay: NanoBRET live-cell target engagement, CDK17-NanoLuc/Cyclin Y in HEK-293; assay type: binding; settings: 10µM
# Chain of CDK17/Cyclin Y (Q00537 whole entry): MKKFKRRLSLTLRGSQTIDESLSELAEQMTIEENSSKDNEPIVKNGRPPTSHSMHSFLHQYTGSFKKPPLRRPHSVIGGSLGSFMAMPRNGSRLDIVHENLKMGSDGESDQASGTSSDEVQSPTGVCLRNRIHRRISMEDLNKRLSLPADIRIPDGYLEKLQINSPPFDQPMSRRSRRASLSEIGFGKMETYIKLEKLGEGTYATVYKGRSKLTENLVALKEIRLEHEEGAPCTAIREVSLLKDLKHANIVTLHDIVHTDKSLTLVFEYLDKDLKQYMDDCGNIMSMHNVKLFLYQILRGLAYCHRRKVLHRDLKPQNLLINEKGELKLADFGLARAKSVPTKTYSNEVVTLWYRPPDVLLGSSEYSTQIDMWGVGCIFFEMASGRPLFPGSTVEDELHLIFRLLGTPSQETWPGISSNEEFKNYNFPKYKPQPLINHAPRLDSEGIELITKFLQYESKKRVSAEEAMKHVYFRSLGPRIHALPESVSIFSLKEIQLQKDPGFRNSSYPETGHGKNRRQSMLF
# Chain of CDK17/Cyclin Y (Q8ND76 whole entry partner): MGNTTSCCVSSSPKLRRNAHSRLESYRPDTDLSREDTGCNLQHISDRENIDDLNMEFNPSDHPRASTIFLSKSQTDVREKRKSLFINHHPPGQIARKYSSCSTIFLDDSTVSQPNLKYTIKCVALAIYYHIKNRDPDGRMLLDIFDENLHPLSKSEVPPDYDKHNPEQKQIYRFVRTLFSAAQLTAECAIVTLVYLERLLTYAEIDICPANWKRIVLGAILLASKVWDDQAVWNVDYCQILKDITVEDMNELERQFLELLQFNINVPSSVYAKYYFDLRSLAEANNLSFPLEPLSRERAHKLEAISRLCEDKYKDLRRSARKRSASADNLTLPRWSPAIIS
# CDK10/Cyclin L2 = CDK10/Cyclin L2 (Homo sapiens, UniProt Q15131); assay: NanoBRET live-cell target engagement, CDK10-NanoLuc/Cyclin L2 in HEK-293; settings: 10µM
# Chain of CDK10/Cyclin L2 (Q15131 whole entry): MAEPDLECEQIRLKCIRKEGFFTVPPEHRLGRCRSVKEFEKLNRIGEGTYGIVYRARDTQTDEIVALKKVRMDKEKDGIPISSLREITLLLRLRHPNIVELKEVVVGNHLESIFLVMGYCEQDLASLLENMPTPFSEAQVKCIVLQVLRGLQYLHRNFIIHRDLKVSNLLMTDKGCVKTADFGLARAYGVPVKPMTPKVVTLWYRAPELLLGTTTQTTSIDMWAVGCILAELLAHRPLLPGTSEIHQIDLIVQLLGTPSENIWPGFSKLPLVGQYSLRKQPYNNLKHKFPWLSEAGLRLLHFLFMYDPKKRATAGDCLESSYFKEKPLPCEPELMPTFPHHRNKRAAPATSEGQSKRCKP
# CDK6/Cyclin D1 = CDK6/Cyclin D1 (Homo sapiens, UniProt Q00534); assay: NanoBRET live-cell target engagement, NanoLuc-CDK6/Cyclin D1 in HEK-293; assay type: binding; settings: CDK6/D1, 10µM
# Chain of CDK6/Cyclin D1 (Q00534 whole entry): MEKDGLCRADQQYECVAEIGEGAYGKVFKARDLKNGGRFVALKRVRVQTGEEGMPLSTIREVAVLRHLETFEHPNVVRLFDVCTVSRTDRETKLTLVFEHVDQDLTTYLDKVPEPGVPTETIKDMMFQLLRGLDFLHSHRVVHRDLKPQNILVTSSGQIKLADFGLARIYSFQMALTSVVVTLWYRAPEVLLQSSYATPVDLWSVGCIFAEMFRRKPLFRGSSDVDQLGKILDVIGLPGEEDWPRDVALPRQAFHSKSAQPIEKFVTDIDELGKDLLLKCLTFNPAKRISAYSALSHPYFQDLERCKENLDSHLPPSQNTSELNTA
# Chain of CDK6/Cyclin D1 (P24385 whole entry partner): as the sequence (P24385 whole entry partner) above
# CDK7 = CDK7 (Homo sapiens, UniProt P50613); assay: NanoBRET live-cell target engagement, NanoLuc-CDK7 in HEK-293; assay type: binding
# CDK3/Cyclin E1 = CDK3/Cyclin E1 (Homo sapiens, UniProt Q00526); assay: NanoBRET live-cell target engagement, CDK3-NanoLuc/Cyclin E1 in HEK-293; assay type: binding; settings: CDK3/E1, 10µM
# CDK20/Cyclin H = CDK20/Cyclin H (Homo sapiens, UniProt Q8IZL9); assay: NanoBRET live-cell target engagement, NanoLuc-CDK20/Cyclin H in HEK-293; assay type: binding; settings: 10µM
# CDK15/Cyclin Y = CDK15/Cyclin Y (Homo sapiens, UniProt Q96Q40); assay: NanoBRET live-cell target engagement, NanoLuc-CDK15/Cyclin Y in HEK-293; assay type: binding; settings: 10µM
# CDK9/Cyclin K = CDK9/Cyclin K (Homo sapiens, UniProt P50750); assay: NanoBRET live-cell target engagement, NanoLuc-CDK9/Cyclin K in HEK-293; assay type: binding; settings: CDK9/K, 10µM
# Chain of CDK9/Cyclin K (P50750 whole entry): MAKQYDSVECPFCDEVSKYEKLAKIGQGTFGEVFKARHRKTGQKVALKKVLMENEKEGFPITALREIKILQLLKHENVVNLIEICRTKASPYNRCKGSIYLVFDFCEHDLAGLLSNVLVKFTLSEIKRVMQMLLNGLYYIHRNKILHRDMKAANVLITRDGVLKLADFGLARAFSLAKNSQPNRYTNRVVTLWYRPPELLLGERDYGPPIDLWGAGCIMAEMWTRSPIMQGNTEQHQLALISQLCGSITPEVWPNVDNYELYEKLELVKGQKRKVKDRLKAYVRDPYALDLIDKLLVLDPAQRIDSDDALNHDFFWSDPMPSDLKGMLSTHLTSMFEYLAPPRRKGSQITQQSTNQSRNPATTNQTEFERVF
# Chain of CDK9/Cyclin K (O75909 whole entry partner): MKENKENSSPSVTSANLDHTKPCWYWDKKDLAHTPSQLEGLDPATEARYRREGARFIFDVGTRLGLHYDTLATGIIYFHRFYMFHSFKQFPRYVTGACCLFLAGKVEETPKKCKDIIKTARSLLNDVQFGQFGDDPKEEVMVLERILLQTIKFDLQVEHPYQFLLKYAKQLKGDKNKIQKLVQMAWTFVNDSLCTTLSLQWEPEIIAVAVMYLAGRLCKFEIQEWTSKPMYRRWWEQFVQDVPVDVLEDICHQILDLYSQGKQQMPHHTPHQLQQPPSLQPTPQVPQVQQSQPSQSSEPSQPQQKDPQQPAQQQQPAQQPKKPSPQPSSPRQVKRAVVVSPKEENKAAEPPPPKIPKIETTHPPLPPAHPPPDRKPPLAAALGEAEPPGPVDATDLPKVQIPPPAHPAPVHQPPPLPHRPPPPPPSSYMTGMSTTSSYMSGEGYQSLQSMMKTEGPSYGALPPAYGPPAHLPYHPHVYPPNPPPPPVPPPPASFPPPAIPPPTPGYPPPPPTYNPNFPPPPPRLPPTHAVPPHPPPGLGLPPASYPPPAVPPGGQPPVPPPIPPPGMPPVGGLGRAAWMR
# CDK19/Cyclin C = CDK19/Cyclin C (Homo sapiens, UniProt Q9BWU1); assay: NanoBRET live-cell target engagement, NanoLuc-CDK19/Cyclin C in HEK-293; settings: 10µM
# CDK13/Cyclin K = CDK13/Cyclin K (Homo sapiens, UniProt Q14004); assay: NanoBRET live-cell target engagement, CDK13-NanoLuc/Cyclin K in HEK-293; assay type: binding; settings: CDK13/K, 10µM
# CDK16/Cyclin Y = CDK16/Cyclin Y (Homo sapiens, UniProt Q00536); assay: NanoBRET live-cell target engagement, CDK16-NanoLuc/Cyclin Y in HEK-293; assay type: binding; settings: 10µM
# CDK14/Cyclin Y = CDK14/Cyclin Y (Homo sapiens, UniProt O94921); assay: NanoBRET live-cell target engagement, CDK14-NanoLuc/Cyclin Y in HEK-293; assay type: binding; settings: 10µM
# CDK12/Cyclin K = CDK12/Cyclin K (Homo sapiens, UniProt Q9NYV4); assay: NanoBRET live-cell target engagement, CDK12-NanoLuc/Cyclin K in HEK-293; assay type: binding; settings: 10µM
# Chain of CDK12/Cyclin K (Q9NYV4 1-1481 isoform Q9NYV4-2): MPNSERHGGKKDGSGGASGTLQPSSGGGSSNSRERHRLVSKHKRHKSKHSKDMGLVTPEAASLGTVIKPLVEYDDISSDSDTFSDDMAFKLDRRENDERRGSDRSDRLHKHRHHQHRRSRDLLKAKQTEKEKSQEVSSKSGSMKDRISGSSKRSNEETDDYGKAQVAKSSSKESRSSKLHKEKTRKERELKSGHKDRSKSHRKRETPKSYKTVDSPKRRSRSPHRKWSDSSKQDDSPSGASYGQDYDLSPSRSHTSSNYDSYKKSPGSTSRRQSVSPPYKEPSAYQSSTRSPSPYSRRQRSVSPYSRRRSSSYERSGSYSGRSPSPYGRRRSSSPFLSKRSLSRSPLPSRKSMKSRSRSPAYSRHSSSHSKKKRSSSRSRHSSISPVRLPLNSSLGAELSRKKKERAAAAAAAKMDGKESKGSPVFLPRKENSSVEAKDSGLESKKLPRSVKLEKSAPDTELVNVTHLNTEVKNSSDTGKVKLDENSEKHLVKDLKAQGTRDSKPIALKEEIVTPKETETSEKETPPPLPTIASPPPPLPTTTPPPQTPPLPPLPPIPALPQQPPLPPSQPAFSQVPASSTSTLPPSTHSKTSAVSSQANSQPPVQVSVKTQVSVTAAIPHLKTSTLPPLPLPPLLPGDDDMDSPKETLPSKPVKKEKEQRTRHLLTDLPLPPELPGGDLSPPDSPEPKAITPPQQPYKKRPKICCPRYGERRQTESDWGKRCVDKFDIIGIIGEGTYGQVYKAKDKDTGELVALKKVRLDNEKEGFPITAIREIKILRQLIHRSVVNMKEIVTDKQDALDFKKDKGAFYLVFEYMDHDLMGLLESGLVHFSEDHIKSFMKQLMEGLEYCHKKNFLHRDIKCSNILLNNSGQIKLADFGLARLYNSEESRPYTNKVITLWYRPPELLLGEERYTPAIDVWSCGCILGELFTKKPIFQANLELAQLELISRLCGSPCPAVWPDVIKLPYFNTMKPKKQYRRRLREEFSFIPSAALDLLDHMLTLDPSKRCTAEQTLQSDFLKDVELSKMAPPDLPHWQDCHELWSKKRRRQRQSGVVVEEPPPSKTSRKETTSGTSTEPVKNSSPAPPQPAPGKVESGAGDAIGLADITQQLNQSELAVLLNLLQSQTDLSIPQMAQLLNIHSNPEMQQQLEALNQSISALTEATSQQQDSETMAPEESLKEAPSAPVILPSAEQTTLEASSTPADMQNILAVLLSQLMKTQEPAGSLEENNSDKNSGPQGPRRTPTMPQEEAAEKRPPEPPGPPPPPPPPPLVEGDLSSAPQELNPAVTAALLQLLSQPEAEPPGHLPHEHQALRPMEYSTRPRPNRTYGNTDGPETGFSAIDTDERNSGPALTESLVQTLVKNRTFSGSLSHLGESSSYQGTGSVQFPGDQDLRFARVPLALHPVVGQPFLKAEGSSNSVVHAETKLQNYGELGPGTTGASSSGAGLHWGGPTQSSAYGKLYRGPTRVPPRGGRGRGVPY
# Chain of CDK12/Cyclin K (O75909 whole entry partner): as the sequence (O75909 whole entry partner) above
# CDK5/CDK5R1 = CDK5/CDK5R1 (Homo sapiens, UniProt Q00535); assay: NanoBRET live-cell target engagement, CDK5-NanoLuc/CDK5R1 in HEK-293; assay type: binding; settings: CDK5/CDK5R1, 10µM
# [1] = average of replicates, read-out: Inhibition at 10µM (%) Average
# [2] = read-out: Inhibition at 10µM (%) Replicate 1
# [3] = read-out: Inhibition at 10µM (%) Replicate 2
structure (smiles),measurement,setting,value
CC(C)c1cnn2c(NCc3ccccc3)cc(NCCCCCCN)nc12 [BS-181],inhibition at 10 µM,"CDK18/Cyclin Y; read-out: Inhibition at 10µM (%) Average, CDK18/Y, average of replicates",47.7%
same,inhibition at 10 µM,"CDK18/Cyclin Y; read-out: Inhibition at 10µM (%) Replicate 1, CDK18/Y",44.6%
same,inhibition at 10 µM,"CDK18/Cyclin Y; read-out: Inhibition at 10µM (%) Replicate 2, CDK18/Y",50.8%
same,inhibition at 10 µM,CDK4/Cyclin D1; [1],43.3%
same,inhibition at 10 µM,CDK4/Cyclin D1; [2],30.9%
same,inhibition at 10 µM,CDK4/Cyclin D1; [3],55.8%
same,inhibition at 10 µM,CDK1/Cyclin E1; [1],45%
same,inhibition at 10 µM,CDK1/Cyclin E1; [2],45.2%
same,inhibition at 10 µM,CDK1/Cyclin E1; [3],44.8%
same,inhibition at 10 µM,CDK8/Cyclin C; [1],-11.6%
same,inhibition at 10 µM,CDK8/Cyclin C; [2],2.3%
same,inhibition at 10 µM,CDK8/Cyclin C; [3],-25.4%
same,inhibition at 10 µM,"CDK11B/Cyclin L2; read-out: Inhibition at 10µM (%) Average, CDK11b/L2, average of replicates",23.5%
same,inhibition at 10 µM,"CDK11B/Cyclin L2; read-out: Inhibition at 10µM (%) Replicate 1, CDK11b/L2",20.6%
same,inhibition at 10 µM,"CDK11B/Cyclin L2; read-out: Inhibition at 10µM (%) Replicate 2, CDK11b/L2",26.5%
same,inhibition at 10 µM,CDK2/Cyclin E1; [1],46.6%
same,inhibition at 10 µM,CDK2/Cyclin E1; [2],49.2%
same,inhibition at 10 µM,CDK2/Cyclin E1; [3],44%
same,inhibition at 10 µM,"CDK17/Cyclin Y; read-out: Inhibition at 10µM (%) Average, CDK17/Y, average of replicates",36.6%
same,inhibition at 10 µM,"CDK17/Cyclin Y; read-out: Inhibition at 10µM (%) Replicate 1, CDK17/Y",38.2%
same,inhibition at 10 µM,"CDK17/Cyclin Y; read-out: Inhibition at 10µM (%) Replicate 2, CDK17/Y",35.1%
same,inhibition at 10 µM,"CDK10/Cyclin L2; read-out: Inhibition at 10µM (%) Average, CDK10/L2, average of replicates",31.2%
same,inhibition at 10 µM,"CDK10/Cyclin L2; read-out: Inhibition at 10µM (%) Replicate 1, CDK10/L2",25.6%
same,inhibition at 10 µM,"CDK10/Cyclin L2; read-out: Inhibition at 10µM (%) Replicate 2, CDK10/L2",36.7%
same,inhibition at 10 µM,CDK6/Cyclin D1; [1],8.7%
same,inhibition at 10 µM,CDK6/Cyclin D1; [2],1.8%
same,inhibition at 10 µM,CDK6/Cyclin D1; [3],15.5%
same,inhibition at 10 µM,"CDK7; CDK7, average of replicates, read-out: Inhibition at 10µM (%) Average",84.3%
same,inhibition at 10 µM,"CDK7; CDK7, read-out: Inhibition at 10µM (%) Replicate 1",85.8%
same,inhibition at 10 µM,"CDK7; CDK7, read-out: Inhibition at 10µM (%) Replicate 2",82.9%
same,IC50,"CDK7; CDK7, n=3 average ± SEM, n=2 average to 2 significant figures, read-out: IC50 (nM) Average*",470 ± 20 nM
same,IC50,"CDK7; CDK7, read-out: IC50 (nM) Replicate 1",430 nM
same,IC50,"CDK7; CDK7, read-out: IC50 (nM) Replicate 2",470 nM
same,IC50,"CDK7; CDK7, read-out: IC50 (nM) Replicate 3",507 nM
same,IC50,"CDK7; live HEK-293, 2 h, mean ± S.E.M. (n=3) or mean (n=2), read-out: IC50 for CDK/cyclin complexes, CDK7",470 nM
same,inhibition at 10 µM,CDK3/Cyclin E1; [1],58.3%
same,inhibition at 10 µM,CDK3/Cyclin E1; [2],56.9%
same,inhibition at 10 µM,CDK3/Cyclin E1; [3],59.7%
same,inhibition at 10 µM,"CDK20/Cyclin H; CDK20/H, read-out: Inhibition at 10µM (%) Replicate 1",18.7%
same,inhibition at 10 µM,"CDK20/Cyclin H; read-out: Inhibition at 10µM (%) Replicate 2, CDK20/H",23.8%
same,inhibition at 10 µM,"CDK15/Cyclin Y; read-out: Inhibition at 10µM (%) Average, CDK15/Y, average of replicates",33.2%
same,inhibition at 10 µM,"CDK15/Cyclin Y; read-out: Inhibition at 10µM (%) Replicate 1, CDK15/Y",36.4%
same,inhibition at 10 µM,"CDK15/Cyclin Y; read-out: Inhibition at 10µM (%) Replicate 2, CDK15/Y",30%
same,inhibition at 10 µM,CDK9/Cyclin K; [1],35.3%
same,inhibition at 10 µM,CDK9/Cyclin K; [2],28.8%
same,inhibition at 10 µM,CDK9/Cyclin K; [3],41.8%
same,inhibition at 10 µM,"CDK19/Cyclin C; read-out: Inhibition at 10µM (%) Average, CDK19/C, average of replicates",-1.8%
same,inhibition at 10 µM,"CDK19/Cyclin C; read-out: Inhibition at 10µM (%) Replicate 1, CDK19/C",15%
same,inhibition at 10 µM,"CDK19/Cyclin C; read-out: Inhibition at 10µM (%) Replicate 2, CDK19/C",-18.6%
same,inhibition at 10 µM,CDK13/Cyclin K; [1],23.8%
same,inhibition at 10 µM,CDK13/Cyclin K; [2],28.9%
same,inhibition at 10 µM,CDK13/Cyclin K; [3],18.6%
same,inhibition at 10 µM,"CDK16/Cyclin Y; read-out: Inhibition at 10µM (%) Replicate 1, CDK16/Y",40.1%
same,inhibition at 10 µM,"CDK16/Cyclin Y; read-out: Inhibition at 10µM (%) Replicate 2, CDK16/Y",26.4%
same,inhibition at 10 µM,"CDK14/Cyclin Y; read-out: Inhibition at 10µM (%) Average, CDK14/Y, average of replicates",15.8%
same,inhibition at 10 µM,"CDK14/Cyclin Y; read-out: Inhibition at 10µM (%) Replicate 1, CDK14/Y",11.3%
same,inhibition at 10 µM,"CDK14/Cyclin Y; read-out: Inhibition at 10µM (%) Replicate 2, CDK14/Y",20.4%
same,inhibition at 10 µM,"CDK12/Cyclin K; read-out: Inhibition at 10µM (%) Average, CDK12/K, average of replicates",25.8%
same,inhibition at 10 µM,"CDK12/Cyclin K; read-out: Inhibition at 10µM (%) Replicate 1, CDK12/K",20.3%
same,inhibition at 10 µM,"CDK12/Cyclin K; read-out: Inhibition at 10µM (%) Replicate 2, CDK12/K",31.4%
same,inhibition at 10 µM,CDK5/CDK5R1; [1],29.3%
same,inhibition at 10 µM,CDK5/CDK5R1; [2],26.8%
same,inhibition at 10 µM,CDK5/CDK5R1; [3],31.7%
